Test results taken from patent publication US11154533B2, “Topical compositions and methods for treating inflammatory skin diseases” (Azora Therapeutics, Inc., priority 2019, dated 2021).

Legend:
Assay in all cases: Pharmacodynamics in Th17-stimulated human skin on Franz cell, qPCR
Format in all cases: cell-based
Settings in all cases: control added to receptor solution at 40 hours and 16 hours prior to Th17 stimulation
IL1-beta = system: IL1-beta
Protocol: (§1) Example 5 describes results of a study on the pharmacodynamics of composition identified as formulation identification no. OO14. In this study, human skin placed on a static in vitro diffusion cell and a fixed amount of the formulation was applied to the skin. The formulation was applied to the skin at either 16 hours prior to or both 40 hours and 16 hours prior to Th17 stimulation. The receptor solution was replaced with the Th17 stimulation media was incubated for 24 hours prior to harvesting. […] As a control, 0.01% betamethasone (BMV) was added to the receptor solution at both 40 hours and 16 hours prior to Th17 stimulation.
(§2) Freshly excised human skin was dermatomed to 750 microns with the stratum corneum intact and placed on a static Franz cell employing ˜0.6 cm^2 of skin. 10 μL of a topical formulation OO14 containing 0.079% synthetic indirubin was applied to the skin at either 16 hours prior to stimulation or both 40 hours and 16 hours prior to Th17 stimulation. As a control, 0.01% betamethasone (BMV) was added to the receptor solution at both 40 hours and 16 hours prior to Th17 stimulation. The Th17 stimulation media contains a mixture of cytokines and antibodies shown to induce Th17 polarization and was made and added as described in the skin resident immune cell activation assay in Smith S. H. et al., PLoS ONE 11(2): e0147979. The skin was cultured for an additional 24 hours prior to harvesting for qPCR and staining for AhR activation.

IL17-alpha = system: IL17-alpha
Protocol: as §1, §2

IL8 = system: IL8
Protocol: as §1, §2

S100A7 = system: S100A7
Protocol: as §1, §2

C[C@H]1C[C@H]2[C@@H]3CCC4=CC(=O)C=C[C@]4(C)[C@@]3(F)[C@@H](O)C[C@]2(C)[C@@]1(O)C(=O)CO [0.01% BMV, betamethasone]
% Inhibition Compared to Th17, IL1-beta (IL1-beta): 58.66%
% Inhibition Compared to Th17, IL17-alpha (IL17-alpha): 96.99%
% Inhibition Compared to Th17, IL8 (IL8): 14.01%
% Inhibition Compared to Th17, S100A7 (S100A7): N/I* (Not Inhibited compared to Th17)
